From PubChem BioAssay AID2754 (The Scripps Research Institute Molecular Screening Center, 2010)
The source made the active and inactive calls. How the calls were made is not given here.

target: VIM-2 metallo-beta-lactamase (Pseudomonas aeruginosa) (UniProt Q932Y6); experiment: inhibition of VIM-2 substrate hydrolysis – biochemical, epi-absorbance, common IMP-1/VIM-2 hits, dose response (AID 2754); settings: purified VIM-2 enzyme

| Compound | IC50 |
| --- | --- |
| CCn1c(=S)sc2c(=O)n(CC(=O)Nc3ccccc3C(F)(F)F)c(C)nc21 | > 59.6 µM (inactive) |
| CCN(CC)c1ccc2cc(C=O)c(=O)oc2c1 | inactive |
| CCOC(=O)C1CCCN(c2ccc([N+](=O)[O-])c3nonc23)C1 (stereo unspecified) | inactive |
| CC(C)C(CCN1C(=O)c2ccccc2C1=O)c1ccco1 (stereo unspecified) | inactive |
| CN1C(=O)c2cccc3c(N)ccc(c23)C1=O | 7.17 µM |
| CCN(CC)c1ccc2c(-c3ccc(S(=O)(=O)O)cc3S(=O)(=O)[O-])c3ccc(=[N+](CC)CC)cc-3oc2c1 | > 59.6 µM (inactive) |
| CN(C)/C=C1\C=C2C(=O)c3ccccc3N2C1=O | 0.894 µM |
| CN1C(=O)/C(=C\c2ccc(N(C)C)cc2)OC1=S | > 59.6 µM (inactive) |
| CCc1cc(=O)oc2cc(C)c(CN3CCCC3)c(O)c12 | 6.96 µM |
| COCCCNc1c2c3c(cccc3[nH]c1=O)C(=O)c1ccccc1-2 | 1.84 µM |
| CN(/N=C/c1ccc(-c2ccc([N+](=O)[O-])cc2)o1)c1ccccc1 | > 59.6 µM (inactive) |
| COc1ccc(-c2occ(C(=O)O)c2C(=O)O)cc1 | inactive |
| Nc1ccc2c3c(cccc13)C(=O)N(c1ccccc1)C2=O | inactive |
| Cc1nn(-c2ccccc2)c(Cl)c1/C=C(\CC(=O)O)c1nc2ccccc2s1 | 9.26 µM |
| Cc1ccc(Cn2c(C(C)Nc3nc(-c4ccc(C)cc4)cs3)nc3cc(Cl)c(Cl)cc32)cc1 (stereo unspecified) | inactive |
| COc1ccccc1-c1csc(-n2ncc(C#N)c2N)n1 | > 59.6 µM (inactive) |
| O=C1/C(=C\c2cc(Cl)c(O)c(Cl)c2)SC(=S)N1Cc1ccccc1 | inactive |
| COc1ccc2c(Cl)c(C(=O)NCCCn3ccnc3)sc2c1Cl | > 59.6 µM (inactive) |
| CCOC(=O)c1c2c3c(cccc3n(C)c1=O)C(=O)c1ccccc1-2 | inactive |
| O=C1c2cccc3c(O)ccc(c23)C(=O)N1Cc1ccco1 | inactive |
| O=c1ccc2c(-c3ccccc3)c3ccc(O)cc3oc-2c1 | 0.374 µM |
| CCCCCCn1c(=O)[nH]c2nc3cc(N)ccc3nc2c1=O | inactive |
| CCN(CC)C1=CC2=CC(=C(C#N)C#N)CCC2CC1 (stereo unspecified) | 2.4 µM |
| CCN1CCN(C2=CC3=CC(=C(C#N)C#N)CCC3CC2)CC1 (stereo unspecified) | 3.7 µM |

| Compound | IC50 |
| --- | --- |
| CCC(=C/c1sc2ccc3ccccc3c2[n+]1C)/C=C1\Sc2ccc3ccccc3c2N1C | > 59.6 µM (inactive) |
| O=C(Nc1ccc(C(F)(F)F)cc1)c1ccc(NC(=O)C2CCCO2)cc1 (stereo unspecified) | > 59.6 µM (inactive) |
| Cc1nn(C)c(C)c1N1C(=O)c2cccc3c(N)ccc(c23)C1=O | 8.99 µM |
| CN1CCN(C2=CC3=CC(=C(C#N)C#N)CCC3CC2)CC1 (stereo unspecified) | 3 µM |
| O=C1c2cccc3c(O)ccc(c23)C(=O)N1c1ccc(Cl)cc1 | inactive |
| COCCCn1c(=NC(=O)c2ccccc2)c(C#N)cc2c(=O)n3cccc(C)c3nc21 | > 59.6 µM (inactive) |
| Nc1ccc(-c2c3ccc(=O)cc-3oc3cc(O)ccc23)cc1C(=O)O | 4.47 µM |
| CCCCN(C)C1=CC2=CC(=C(C#N)C#N)CCC2CC1 (stereo unspecified) | 4.07 µM |
| O=C(Nc1ccc2oc(-c3ccccc3F)nc2c1)c1ccc([N+](=O)[O-])o1 | > 59.6 µM (inactive) |
| Nc1cccc(N2C(=O)c3cccc4c(N)ccc(c34)C2=O)c1 | inactive |
| Cc1ccc2[nH]cc(/C=C/c3cc[n+](C)cc3)c2c1 | inactive |
| COC(=O)c1sccc1NC(=O)c1ccc(C#N)cc1 | > 59.6 µM (inactive) |
| COc1ccc(/C=C2/SC(c3ccc(C)cc3)=NC2=O)cc1OC | > 59.6 µM (inactive) |
| CCCCC(Sc1nc(N)c(NC(=O)c2ccco2)c(=O)[nH]1)C(=O)O (stereo unspecified) | > 59.6 µM (inactive) |
| O/C=c1\ccc2cccc3nc(C(F)(F)F)nc1c23 | 8.76 µM |
| CCN1/C(=C/C=C/c2oc3ccc4ccccc4c3[n+]2CC)Oc2ccc3ccccc3c21 | > 59.6 µM (inactive) |
| N#CC(C#N)=C1C=C2C=C(N3CCCCC3)CCC2CC1 (stereo unspecified) | 2.33 µM |
| O=C(CCN1C(=O)/C(=C/c2ccc(Cl)cc2)SC1=S)NCCCn1ccnc1 | > 59.6 µM (inactive) |
| Cn1cc(/C=C(\C(=O)O)C(C(=O)O)=C2CCCCC2)c2ccccc21 | inactive |
| CC(=O)Nc1ccc(N2C(=O)c3cccc4c(O)ccc(c34)C2=O)cc1 | inactive |
| CNc1ccc2c3c(cccc13)C(=O)N(C)C2=O | 3.06 µM |
| CC(C)n1cc(/C=C/c2cc[n+](C)cc2)c2ccccc21 | inactive |
| N#CC(C#N)=C1C=C2C=C(N3CCOCC3)CCC2CC1 (stereo unspecified) | 2.74 µM |
| N#CC(C#N)=C1C=C2C=C(N3CCCCCC3)CCC2CC1 (stereo unspecified) | 2.51 µM |

| Compound | IC50 |
| --- | --- |
| COc1ccc(-c2cc(=O)oc3c(C)c(OCC(=O)NCCCn4ccnc4)ccc23)cc1 | inactive |
| CCCCn1c(=O)[nH]c2nc3cc(N)ccc3nc2c1=O | inactive |
| CC(C)(C)c1ccc(-c2c(C(=O)O)c(C(=O)O)c3n2CSC3)cc1 | inactive |
| O=c1cc(C(F)(F)F)c2cc3c4c(c2o1)CCCN4CCC3 | inactive |
| COc1ccccc1N1N=C(c2ccc([N+](=O)[O-])cc2)CC1c1ccccc1 (stereo unspecified) | > 59.6 µM (inactive) |
| CCOc1cc2c(cc1/C=C/c1noc(C)c1[N+](=O)[O-])OC(C)C2 (stereo unspecified) | > 59.6 µM (inactive) |
| CCOc1ccc(/C=C2\CCCc3c2nc2ccccc2c3C(=O)O)cc1OC | inactive |
| CCN(CC)c1ccc2cc(-c3nc4ccccc4[nH]3)c(=O)oc2c1 | 2.73 µM |
| O=P(O)(O)c1cc(-c2ccccc2)oc1-c1ccccc1 | inactive |
| COc1cc(OC)c(-c2c3cc(O)c(=O)cc-3oc3cc(O)c(O)cc23)cc1OC | 5.11 µM |
| COc1ccc(/C=C2\CCCc3c2nc2ccccc2c3C(=O)O)cc1OC | inactive |
| O=C1c2ccccc2-c2onc3ccc(NCCCn4ccnc4)c1c23 | 1.72 µM |
| Cc1n[nH]c(C)c1N1C(=O)c2cccc3c(N4CCCCCC4)ccc(c23)C1=O | inactive |
| CC(=O)Oc1ccc2c(c1)Oc1cc(OC(C)=O)ccc1C21OC(=O)c2ccccc21 | inactive |
| CCCN1C(=O)c2cccc3c(N4CCCCC4)ccc(c23)C1=O | > 59.6 µM (inactive) |
| CCOc1ccc(-c2cc(C(=O)NCCCn3ccnc3)c3cc(Br)ccc3n2)cc1 | > 59.6 µM (inactive) |
| CCN(CC)c1ccc(/C=C/C(=O)c2ccc(Br)cc2)cc1 | 8.45 µM |
| O=C1CCN2C=Nc3cccc4ccc1c2c34 | 9.22 µM |
| O=[N+]([O-])c1ccc(N2CCCCCC2)c2nonc12 | inactive |
| N=C1/C(=C\c2coc3ccccc3c2=O)C(=O)N=C2SC=CN12 | inactive |
| Cc1cccc(N2C(=O)c3cccc4c(N)ccc(c34)C2=O)c1 | inactive |
| COc1cc(/C=C2/SC(=S)N(Cc3ccccc3)C2=O)cc(OC)c1O | > 59.6 µM (inactive) |
| CCN(CC)c1ccc2cc(C(=O)NCc3ccc(F)cc3)c(=N)oc2c1 | > 59.6 µM (inactive) |
